Data set [1] concerns Peritoneal macrophage. The data set can be described thus: Antiinflammatory activity against LPS-stimulated mouse peritoneal macrophage assessed as inhibition of IL-1beta secretion at 1 uM treated for 3 hrs followed by ATP addition measured after 30 mins by ELISA method. It is filed as functional, cell-based. The note with it: time 3.5 hrs.
The target in data set [2] is NACHT, LRR and PYD domains-containing protein 3 (Mus musculus) (UniProt Q8R4B8). Nature of the data set: Inhibition of NLRP3 inflammasome activation in LPS-stimulated mouse peritoneal macrophage assessed as inhibition of IL-1beta secretion at 2 uM treated for 3 hrs followed by ATP addition measured after 30 mins by Western blot analysis relative to control. Format: cell-based. Conditions: time 3.5 hrs. (In general: Immunoblotting shows a protein as a band on a membrane.)

The target is the same in data set [3]. Nature of the data set: Inhibition of NLRP3 inflammasome activation in LPS-stimulated mouse peritoneal macrophage assessed as inhibition of caspase-1 secretion at 2 uM treated for 3 hrs followed by ATP addition measured after 30 mins by Western blot analysis relative to control. Format: cell-based. The note with it: time 3.5 hrs.
Data set [4] has as its system Peritoneal macrophage. The data set can be described thus: Effect on pro-IL-1beta expression in LPS-stimulated mouse peritoneal macrophage at 2 uM treated for 3 hrs followed by ATP addition measured after 30 mins by Western blot analysis. Format: functional, cell-based. Conditions: time 3.5 hrs.
Data set [5] deals with Peritoneal macrophage. Nature of the data set: Effect on pro-caspase-1 expression in LPS-stimulated mouse peritoneal macrophage at 2 uM treated for 3 hrs followed by ATP addition measured after 30 mins by Western blot analysis. Format: functional, cell-based. Conditions: time 3.5 hrs.
In data set [6] the target is NACHT, LRR and PYD domains-containing protein 3 (Mus musculus) (UniProt Q8R4B8). The data set can be described thus: Inhibition of NLRP3 inflammasome activation in ATP-induced LPS-primed mouse BMDM cells assessed as inhibition of IL-1beta secretion at 1 uM treated for 3 hrs followed by ATP addition measured after 30 mins by ELISA method. It is filed as cell-based. The note with it: time 3.5 hrs. For orientation: ELISA stands for enzyme-linked immunosorbent assay.

Data set [7] shares this target. Nature of the data set: Inhibition of NLRP3 inflammasome activation in […] LPS-primed mouse peritoneal macrophage cells assessed as inhibition of IL-1beta secretion at 2 uM treated for 3 hrs followed by nigericin addition measured after 30 mins by ELISA method. Format: cell-based. Conditions: time 3.5 hrs.
The target is the same in data set [8]. Nature of the data set: Inhibition of NLRP3 inflammasome activation in […] LPS-primed mouse peritoneal macrophage cells assessed as inhibition of IL-1beta secretion at 2 uM treated for 3 hrs followed by MSU addition measured after 30 mins by ELISA method. It is filed as cell-based. The note with it: time 3.5 hrs.
The subject of data set [9] is Peritoneal macrophage. The data set can be described thus: Effect on ASC expression in ATP-induced LPS-primed mouse peritoneal macrophage cells at 2 uM treated for 3 hrs followed by ATP addition measured after 30 mins by Western blot analysis. Format: functional, cell-based. The note with it: time 3.5 hrs.
In data set [10] the test system is Peritoneal macrophage. Nature of the data set: Effect on NLRP3 expression in ATP-induced LPS-primed mouse peritoneal macrophage cells at 2 uM treated for 3 hrs followed by ATP addition measured after 30 mins by Western blot analysis. Conditions: time 3.5 hrs. It is filed as functional, cell-based.
Data set [11] concerns Peritoneal macrophage. The data set can be described thus: Effect on pro-caspase-1 expression in ATP-induced LPS-primed mouse peritoneal macrophage cells at 2 uM treated for 3 hrs followed by ATP addition measured after 30 mins by Western blot analysis. It is filed as functional, cell-based. The note with it: time 3.5 hrs.
The test system of data set [12] is Peritoneal macrophage. Nature of the data set: Effect on pro-IL-1beta expression in ATP-induced LPS-primed mouse peritoneal macrophage cells at 2 uM treated for 3 hrs followed by ATP addition measured after 30 mins by Western blot analysis. The note with it: time 3.5 hrs. Format: functional, cell-based.
Data set [13] addresses NACHT, LRR and PYD domains-containing protein 3 (Homo sapiens) (UniProt Q96P20). The data set can be described thus: Inhibition of NLRP3 (unknown origin) degradation at 10 uM incubated for 5 hrs followed by heat treatment for 3 mins by CETSA assay. The note with it: time 5.03 hrs.
The test system of data set [14] is Mus musculus. The data set can be described thus: Antiinflammatory activity in septic C57BL/6 mouse model assessed as decrease in LPS-induced IL-1beta release at 50 mg/kg, ip pretreated for 42 hrs followed by LPS injection measured after 6 hrs by ELISA method. It is filed as functional, organism-based. The note with it: time 48.0 hrs.
The subject of data set [15] is Mus musculus. Nature of the data set: Antiinflammatory activity in septic C57BL/6 mouse model assessed as decrease in LPS-induced IL-6 release at 50 mg/kg, ip pretreated for 42 hrs followed by LPS injection measured after 6 hrs by ELISA method. The note with it: time 48.0 hrs. It is filed as functional, organism-based.
The test system of data set [16] is Mus musculus. Nature of the data set: Antiinflammatory activity in septic C57BL/6 mouse model assessed as reduction in LPS-induced alveolar wall thickening at 50 mg/kg, ip pretreated for 42 hrs followed by LPS injection measured after 6 hrs by H and E staining based analysis. It is filed as functional, organism-based. The note with it: time 48.0 hrs.
Data set [17] has as its system Mus musculus. Nature of the data set: Antiinflammatory activity in septic C57BL/6 mouse model assessed as reduction in LPS-induced granulocyte count at 50 mg/kg, ip pretreated for 42 hrs followed by LPS injection measured after 6 hrs by H and E staining based analysis. It is filed as functional, organism-based. The note with it: time 48.0 hrs.
Data set [18] has as its system Mus musculus. Nature of the data set: Antiinflammatory activity in septic C57BL/6 mouse model assessed as reduction in LPS-induced inflammatory infiltration at 50 mg/kg, ip pretreated for 42 hrs followed by LPS injection measured after 6 hrs by H and E staining based analysis. It is filed as functional, organism-based. The note with it: time 48.0 hrs.
Data set [19] has as its system Peritoneal macrophage. Nature of the data set: Antiinflammatory activity against LPS-stimulated mouse peritoneal macrophage assessed as IL-6 level at 2 uM treated for 3 hrs followed by ATP addition measured after 30 mins by ELISA method. Format: functional, cell-based. The note with it: time 3.5 hrs.
Data set [20] deals with Peritoneal macrophage. Nature of the data set: Cytotoxicity against mouse peritoneal macrophages at 4 uM incubated for 3.5 hrs by MTT assay. Format: toxicity, cell-based. Background: Formazan colour is commonly taken as a measure of viable cells.
Data set [21] has as its system Peritoneal macrophage. The data set can be described thus: Antiinflammatory activity against LPS-stimulated mouse peritoneal macrophage assessed as TNF-alpha level at 2 uM treated for 3 hrs followed by ATP addition measured after 30 mins by ELISA method relative to control. It is filed as functional. The note with it: time 3.5 hrs.
The test system of data set [22] is Peritoneal macrophage. Nature of the data set: Antiinflammatory activity against LPS-stimulated mouse peritoneal macrophage assessed as IL-6 level at 2 uM treated for 3 hrs followed by ATP addition measured after 30 mins by ELISA method relative to control. Format: functional. The note with it: time 3.5 hrs.
In data set [23] the test system is Peritoneal macrophage. Nature of the data set: Antiinflammatory activity against LPS-stimulated mouse peritoneal macrophage assessed as IL-1beta level at 2 uM treated for 3 hrs followed by ATP addition measured after 30 mins by ELISA method. It is filed as functional, cell-based. Conditions: time 3.5 hrs.
The subject of data set [24] is Peritoneal macrophage. The data set can be described thus: Antiinflammatory activity against LPS-stimulated mouse peritoneal macrophage assessed as IL-1beta level at 2 uM treated for 3 hrs followed by ATP addition measured after 30 mins by ELISA method relative to control. Format: functional. Conditions: time 3.5 hrs.
Data set [25] relates to Peritoneal macrophage. The data set can be described thus: Antiinflammatory activity against LPS-stimulated mouse peritoneal macrophage assessed as inhibition of IL-1beta secretion treated for 3 hrs followed by ATP addition measured after 30 mins by ELISA method. It is filed as functional, cell-based.
In data set [26] the target is NACHT, LRR and PYD domains-containing protein 3 (Mus musculus, UniProt Q8R4B8). The data set can be described thus: Binding affinity to CMS sensor chip immobilized His-SUMO-tagged mouse NLRP3 expressed in Escherichia coli assessed as dissociation constant by SPR analysis.
Data set [27] in a line: Aqueous solubility of compound incubated for 24 hrs by HPLC analysis. The note with it: buffer. It is filed as physicochemical.
Data set [28] in a line: Metabolic stability in human liver microsomes assessed as half life at 20 uM measured upto 120 mins in presence of NADPH by LC-MS/MS analysis. Format: ADME, Microsome.
A short description of data set [29]: Metabolic stability in mouse liver microsomes assessed as half life at 20 uM measured upto 120 mins in presence of NADPH by LC-MS/MS analysis. It is filed as ADME, Microsome.
Data set [30] is described as follows: Metabolic stability in human liver microsomes assessed as intrinsic clearance at 20 uM measured upto 120 mins in presence of NADPH by LC-MS/MS analysis. Conditions: read-out: CLH. It is filed as ADME, Microsome.
Data set [31] in a line: Metabolic stability in mouse liver microsomes assessed as intrinsic clearance at 20 uM measured upto 120 mins in presence of NADPH by LC-MS/MS analysis. It is filed as ADME, Microsome. The note with it: read-out: CLH.

In brackets after ≈: the same amount, converted by molar mass. Activity calls are given as the source filed them. The calls are words filed in the database; no cut-off is given here.

Chain of NACHT, LRR and PYD domains-containing protein 3 (Mus musculus) (Q8R4B8 whole entry, the tested form may be a part): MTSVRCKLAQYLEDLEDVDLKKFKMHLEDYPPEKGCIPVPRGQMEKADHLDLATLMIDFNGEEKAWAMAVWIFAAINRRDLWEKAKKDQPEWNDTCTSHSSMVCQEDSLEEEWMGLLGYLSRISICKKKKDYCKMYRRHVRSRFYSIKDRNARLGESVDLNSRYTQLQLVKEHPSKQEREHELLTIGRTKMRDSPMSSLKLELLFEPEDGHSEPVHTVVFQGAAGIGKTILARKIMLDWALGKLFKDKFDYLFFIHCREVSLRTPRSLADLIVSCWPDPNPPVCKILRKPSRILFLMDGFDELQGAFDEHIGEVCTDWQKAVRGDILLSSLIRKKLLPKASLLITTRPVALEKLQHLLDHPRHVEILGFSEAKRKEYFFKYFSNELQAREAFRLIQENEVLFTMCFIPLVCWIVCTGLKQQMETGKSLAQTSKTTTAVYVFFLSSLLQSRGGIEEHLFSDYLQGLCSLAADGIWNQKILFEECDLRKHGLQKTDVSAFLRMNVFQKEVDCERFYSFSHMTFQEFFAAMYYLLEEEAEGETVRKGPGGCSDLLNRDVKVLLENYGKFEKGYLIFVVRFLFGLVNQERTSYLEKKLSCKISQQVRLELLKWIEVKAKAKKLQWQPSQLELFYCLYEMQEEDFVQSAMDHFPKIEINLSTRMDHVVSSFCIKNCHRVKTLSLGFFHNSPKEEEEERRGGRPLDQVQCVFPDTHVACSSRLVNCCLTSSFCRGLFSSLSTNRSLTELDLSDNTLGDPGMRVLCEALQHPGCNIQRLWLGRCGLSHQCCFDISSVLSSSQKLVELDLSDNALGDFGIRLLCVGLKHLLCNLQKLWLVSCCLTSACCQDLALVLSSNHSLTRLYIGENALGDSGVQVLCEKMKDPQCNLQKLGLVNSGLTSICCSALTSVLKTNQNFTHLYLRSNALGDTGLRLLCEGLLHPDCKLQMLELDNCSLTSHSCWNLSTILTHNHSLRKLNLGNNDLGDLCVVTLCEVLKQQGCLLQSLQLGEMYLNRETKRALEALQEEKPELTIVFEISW
Chain of NACHT, LRR and PYD domains-containing protein 3 (Q8R4B8 whole entry, the tested form may be a part): as above
Chain of NACHT, LRR and PYD domains-containing protein 3 (Homo sapiens) (Q96P20 whole entry, the tested form may be a part): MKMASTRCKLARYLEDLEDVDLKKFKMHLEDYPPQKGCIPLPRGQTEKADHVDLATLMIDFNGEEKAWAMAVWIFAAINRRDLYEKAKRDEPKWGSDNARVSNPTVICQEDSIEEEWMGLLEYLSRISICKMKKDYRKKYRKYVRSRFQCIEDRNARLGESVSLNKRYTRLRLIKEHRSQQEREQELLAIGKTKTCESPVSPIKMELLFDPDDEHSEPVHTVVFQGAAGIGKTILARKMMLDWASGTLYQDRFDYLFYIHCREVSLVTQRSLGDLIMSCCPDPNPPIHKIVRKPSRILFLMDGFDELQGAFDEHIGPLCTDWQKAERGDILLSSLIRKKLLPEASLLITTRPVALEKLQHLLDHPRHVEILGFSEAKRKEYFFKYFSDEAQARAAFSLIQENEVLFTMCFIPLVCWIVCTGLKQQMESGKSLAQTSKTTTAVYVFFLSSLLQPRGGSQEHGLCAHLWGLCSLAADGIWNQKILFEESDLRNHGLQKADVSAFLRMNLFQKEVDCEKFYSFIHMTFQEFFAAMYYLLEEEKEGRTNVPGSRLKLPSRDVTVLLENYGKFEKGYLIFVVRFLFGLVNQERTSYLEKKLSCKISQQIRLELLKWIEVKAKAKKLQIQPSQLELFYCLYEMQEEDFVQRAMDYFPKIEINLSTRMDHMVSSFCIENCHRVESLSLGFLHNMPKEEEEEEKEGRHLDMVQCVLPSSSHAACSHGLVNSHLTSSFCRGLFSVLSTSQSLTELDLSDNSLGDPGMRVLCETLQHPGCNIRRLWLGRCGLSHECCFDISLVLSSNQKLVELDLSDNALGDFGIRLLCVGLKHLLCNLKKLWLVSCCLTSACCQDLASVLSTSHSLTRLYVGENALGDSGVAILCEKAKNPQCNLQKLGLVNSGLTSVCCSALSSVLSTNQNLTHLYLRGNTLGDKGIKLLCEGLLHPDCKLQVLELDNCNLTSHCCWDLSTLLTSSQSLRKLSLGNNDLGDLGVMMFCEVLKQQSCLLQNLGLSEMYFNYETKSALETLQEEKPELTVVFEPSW

The inhibition is the share of the control response that was lost under treatment. Turning to `Cc1cccc2c3c(ccc12)-c1oc2c(c1C(=O)C3=O)CCN(CCCN1CCOCC1)C2` [listing 1 of 2 here], the inhibition entry in data set [1], in data set [6], in [7], in data set [8] and in data set [13] was “Active” each time. Further, the inhibition in data set [2] and in [3] was 100% throughout. The outcome in data set [4], in data set [5], in data set [9], in data set [10], in data set [11] and in [12] was inactive. The outcome in [14], in [15], in [16], in data set [17] and in data set [18] was Active.
On to `Cc1cccc2c3c(ccc12)-c1oc2c(c1C(=O)C3=O)CCN(CCO)C2`, for which the outcome in data set [19], in data set [4], in data set [5], in data set [9], in data set [10] and in data set [11] was inactive. Further, the result in data set [12] was inactive. For the same molecule, the inhibition entry in data set [1], in data set [6], in data set [7] and in data set [8] was “Active” throughout. The inhibition in [2] and in data set [3] was 100% throughout. Besides, the outcome in data set [14], in data set [15], in [16], in data set [17] and in data set [18] was Active.
As to `Cc1cccc2c3c(ccc12)-c1oc2c(c1C(=O)C3=O)CCN([C@H](CO)CCCO)C2`, the inhibition entry in data set [1], in [6], in data set [7] and in [8] was “Active” each time. For the same molecule, the inhibition in [2] and in data set [3] was 100% throughout. Further, the outcome in [4], in [5], in data set [9], in data set [10], in data set [11] and in [12] was inactive. Also, the outcome in data set [14], in data set [15], in data set [16], in [17] and in data set [18] was Active.
`Cc1coc2c1C(=O)C(=O)c1c-2ccc2c1CCCC2(C)C` [TANSHINONE IIA]: the Activity entry is given as “Non-Toxic” in [20], 19% in data set [21] and 16% in data set [22]. For the same molecule, the outcome in data set [23] was inactive.
Usually IC50 stands for the midpoint of a concentration-inhibition curve. Broadly, the Kd is the equilibrium constant for the complex coming apart. Usually solubility stands for the dissolved amount per volume that the medium holds. High values mean much dissolved substance, low ones little dissolved substance. Usually half-life stands for the time in which the quantity being followed falls by half. Take `Cc1cccc2c3c(ccc12)-c1oc2c(c1C(=O)C3=O)CCN(CCCN1CCOCC1)C2` [listing 2 of 2 here]: the Activity result is listed as “Non-Toxic” in [20], 41% in data set [21] and 97% in data set [24]. In data set [25], the IC50 is 0.131 µM. Also, the dissociation constant (Kd) in data set [26] was found to be 5.87 µM. Further, the solubility in data set [27] turned out to be 0.03 µg/mL (≈ 0.0675 µM). Besides, the values for the half-life at 20 µM in [28] and in data set [29] were 14.4 h and 3.04 h, respectively. For the same molecule, the figures for the microsomal CLint at 20 µM in data set [30] and in [31] were 1.6 µL/min/mg and 7.6 µL/min/mg, respectively.

(Values after ChEMBL document CHEMBL5380810, “Scaffold Hybrid of the Natural Product Tanshinone I with Piperidine for the Discovery of a Potent NLRP3 Inflammasome Inhibitor” (J Med Chem, 2023).)
